The NIST ThermoML archive (doi:10.1021/je700339f)

Experiment: xn = mol fraction of the nth substance listed
Settings: 298 K, Liquid

ClCCCl [1,2-dichloroethane] + CC(=O)N(C)C
mass density [kg/m3]
Settings	x2 = 0.0977	x2 = 0.2003	x2 = 0.2988	x2 = 0.4022	x2 = 0.4999	x2 = 0.6007	x2 = 0.7008	x2 = 0.7988	x2 = 0.8997
100 kPa	1210	1174.4	1141.3	1107.9	1077.4	1047.1	1018.1	990.5	963.2
500 kPa	1210.4	1174.8	1141.6	1108.2	1077.7	1047.4	1018.4	990.8	963.4
1000 kPa	1210.9	1175.2	1142.1	1108.7	1078	1047.7	1018.7	991.1	963.8
1500 kPa	1211.3	1175.6	1142.5	1109	1078.4	1048.1	1019.1	991.4	964.1
2000 kPa	1211.8	1176	1142.9	1109.5	1078.8	1048.4	1019.4	991.8	964.4
2500 kPa	1212.2	1176.5	1143.3	1109.9	1079.2	1048.8	1019.8	992	964.7
3000 kPa	1212.6	1176.9	1143.8	1110.2	1079.6	1049.1	1020.1	992.4	965
3500 kPa	1213.2	1177.3	1144.1	1110.6	1080	1049.5	1020.5	992.7	965.3
4000 kPa	1213.6	1177.7	1144.6	1111	1080.4	1049.8	1020.9	993.1	965.6
4500 kPa	1214	1178.2	1144.8	1111.5	1080.8	1050.1	1021.1	993.4	965.9
5000 kPa	1214.5	1178.6	1145.4	1111.8	1081.1	1050.5	1021.5	993.7	966.2
5500 kPa	1215	1179	1145.8	1112.2	1081.5	1050.8	1021.8	994	966.5
6000 kPa	1215.4	1179.5	1146.1	1112.6	1081.8	1051.2	1022.1	994.3	966.9
6500 kPa	1215.9	1179.9	1146.6	1113	1082.2	1051.6	1022.5	994.7	967.2
7000 kPa	1216.3	1180.3	1147	1113.4	1082.6	1052	1022.8	995	967.5
7500 kPa	1216.7	1180.7	1147.4	1113.8	1083	1052.3	1023.1	995.3	967.8
8000 kPa	1217.2	1181.2	1147.8	1114.1	1083.3	1052.7	1023.5	995.6	968.1
8500 kPa	1217.7	1181.5	1148.2	1114.5	1083.7	1053	1023.8	996	968.4
9000 kPa	1218.1	1182	1148.6	1114.9	1084	1053.4	1024.2	996.3	968.8
9500 kPa	1218.5	1182.4	1149	1115.3	1084.4	1053.8	1024.4	996.6	969
10000 kPa	1219	1182.9	1149.5	1115.7	–	–	–	–	–
